# Measurements published in patent US20100041089A1, “IMPROVED METHOD FOR DETECTING CHEMICAL […]” (priority 2006, published 2010).
# System: yeast genes (expressed mRNA)
# Experiment: DNA chip measurement of expressed mRNA of yeast genes after culture with a toxic chemical substance
# Assay type: cell-based, Saccharomyces cerevisiae S288C
# Conditions: for level of expressed mRNA in the presence of chemical substance / level in the absence of chemical substance: cultured two hours with the chemical substance; for The level of expressed mRNA in the presence of chemical substance/The level of expressed mRNA in the absence of chemical substance: cultured two hours with substance
# Experimental: Yeast (Saccharomyces cerevisiae S288C (a SUC2mal mel gap2 CUP1)) were cultured at 25° C. on YPD medium (yeast extract 1%, polypeptone 2%, glucose 2%). One of toxic chemical substances was added to the cell at logarithmic growth phase, and the cell was further cultured for two hours. Cell was cultured without any chemical substance in the same condition, and was used as a control. Concentrations of the chemical substances were defined to inhibit the growth of the yeast but not lead to death.
# After the completion of cultivation, the culture was centrifuged to collect the cells. To the cells, sodium acetate buffer (50 mM sodium acetate, 10 mM EDTA, 1% SDS) was added, and the mixture was shaken at 65° C. for five minutes, followed by returning to room temperature, and obtaining the supernatant, which procedure was repeated two times. To the supernatant, ½ amount of a solution of phenol/chloroform (1:1) was added, and the mixture was centrifuged to give a supernatant, an equal amount of chloroform was added, and the mixture was centrifuged to give a supernatant. To the supernatant, an equal amount of isopropanol containing 0.3 M sodium acetate was added, and the mixture was allowed to stand at room temperature for 30 minutes, after which the mixture was centrifuged to give sediment of the whole RNAs. Seventy % ethanol was added to the sediment, and the mixture was again centrifuged to give sediment, which was then dried and dissolved in water. mRNA was isolated from the whole RNAs as followings. In view of the fact that a poly A chain is attached to the 3′ terminus of mRNA, a polynucleotide having a poly T structure which was immobilized on the surface of latex beads was used to trap the mRNA, and then the mRNA was washed and eluted with spine column (Oligotex-dT30<Super>mRNA Purification Kit, Takara). Reverse transcription of the mRNA was conducted with a reverse transcriptase (Super Script II Reverse Transcriptase; catalogue No. 18064-014, GibcoBRL) using fluorescence-labeled nucleotides to give cDNAs that were introduced with Cy3-dUTP or Cy5-dUTP during the reverse transcription.
# The labeled cDNAs were dissolved in TE buffer (10 mM Tris-HCl/1 mM EDTA, pH 8.0), and the solution was dropped on the DNA chip containing the whole genes of yeast (DNA Chip Research Inc. Japan) so that the cDNAs were hybridized on the DNA chip at 65° C. for over 12 hours. The fluoresces intensity of the DNA chip was read with a scanner, and the ratio relative to the fluorescence intensity resulting from the absence of chemical substance was estimated as the following, which is shown in Tables 1 to 9.
# In the Tables, “Intensity” indicated in the rightmost column is a value of the level of expressed mRNA of each gene in control cells as divided by the average level of the expressions of the whole genes. A gene of which mRNA level is lower in control, and is higher in cases of addition of chemical substance, is especially useful in the detection of toxic substances.
# Here, when a ratio of an amount of mRNA expressed in the presence of the chemical substance to an amount of mRNA expressed in the absence of the chemical substance is two or more, then it is considered significant.
smiles,measurement,setting,value
"[Cl][Cd][Cl] [(2), CdCl2]",level of expressed mRNA in the presence of chemical substance / level in the absence of chemical substance,yeast gene YJL097W,1.1
same,The level of expressed mRNA in the presence of chemical substance/The level of expressed mRNA in the absence of chemical substance,yeast gene YJL151C,2.4
same,The level of expressed mRNA in the presence of chemical substance/The level of expressed mRNA in the absence of chemical substance,yeast gene YJL152W,1.5
same,The level of expressed mRNA in the presence of chemical substance/The level of expressed mRNA in the absence of chemical substance,yeast gene YJL161W,2.2
same,The level of expressed mRNA in the presence of chemical substance/The level of expressed mRNA in the absence of chemical substance,yeast gene YJL171C,0.7
same,The level of expressed mRNA in the presence of chemical substance/The level of expressed mRNA in the absence of chemical substance,yeast gene YJR008W,1.5
same,level of expressed mRNA in the presence of chemical substance / level in the absence of chemical substance,yeast gene YJR030C,4.4
same,The level of expressed mRNA in the presence of chemical substance/The level of expressed mRNA in the absence of chemical substance,yeast gene YJR054W,0.9
same,level of expressed mRNA in the presence of chemical substance / level in the absence of chemical substance,yeast gene YKL051W,1.1
same,The level of expressed mRNA in the presence of chemical substance/The level of expressed mRNA in the absence of chemical substance,yeast gene YKL071W,3.8
same,The level of expressed mRNA in the presence of chemical substance/The level of expressed mRNA in the absence of chemical substance,yeast gene YKL086W,1.1
same,level of expressed mRNA in the presence of chemical substance / level in the absence of chemical substance,yeast gene YKL097C,1.6
same,level of expressed mRNA in the presence of chemical substance / level in the absence of chemical substance,yeast gene YKL100C,1.1
same,The level of expressed mRNA in the presence of chemical substance/The level of expressed mRNA in the absence of chemical substance,yeast gene YKL151C,3.1
same,The level of expressed mRNA in the presence of chemical substance/The level of expressed mRNA in the absence of chemical substance,yeast gene YKL153W,1.4
same,The level of expressed mRNA in the presence of chemical substance/The level of expressed mRNA in the absence of chemical substance,yeast gene YKL195W,0.5
same,level of expressed mRNA in the presence of chemical substance / level in the absence of chemical substance,yeast gene YKR040C,3.7
same,The level of expressed mRNA in the presence of chemical substance/The level of expressed mRNA in the absence of chemical substance,yeast gene YKR091W,2.3
same,The level of expressed mRNA in the presence of chemical substance/The level of expressed mRNA in the absence of chemical substance,yeast gene YLR054C,1.5
same,The level of expressed mRNA in the presence of chemical substance/The level of expressed mRNA in the absence of chemical substance,yeast gene YLR149C,1.9
same,The level of expressed mRNA in the presence of chemical substance/The level of expressed mRNA in the absence of chemical substance,yeast gene YLR152C,1.3
same,The level of expressed mRNA in the presence of chemical substance/The level of expressed mRNA in the absence of chemical substance,yeast gene YLR194C,2.2
same,level of expressed mRNA in the presence of chemical substance / level in the absence of chemical substance,yeast gene YLR226W,1.8
same,The level of expressed mRNA in the presence of chemical substance/The level of expressed mRNA in the absence of chemical substance,yeast gene YLR324W,1.2
same,level of expressed mRNA in the presence of chemical substance / level in the absence of chemical substance,yeast gene YLR338W,1.6
same,The level of expressed mRNA in the presence of chemical substance/The level of expressed mRNA in the absence of chemical substance,yeast gene YLR350W,1.9
same,The level of expressed mRNA in the presence of chemical substance/The level of expressed mRNA in the absence of chemical substance,yeast gene YLR387C,1.6
same,level of expressed mRNA in the presence of chemical substance / level in the absence of chemical substance,yeast gene YLR392C,0.9
same,level of expressed mRNA in the presence of chemical substance / level in the absence of chemical substance,yeast gene YLR415C,2.4
same,level of expressed mRNA in the presence of chemical substance / level in the absence of chemical substance,yeast gene YLR427W,1.0
same,The level of expressed mRNA in the presence of chemical substance/The level of expressed mRNA in the absence of chemical substance,yeast gene YLR460C,2.1
same,level of expressed mRNA in the presence of chemical substance / level in the absence of chemical substance,yeast gene YML013W,1.0
same,level of expressed mRNA in the presence of chemical substance / level in the absence of chemical substance,yeast gene YML029W,1.5
same,level of expressed mRNA in the presence of chemical substance / level in the absence of chemical substance,yeast gene YML041C,1.0
same,level of expressed mRNA in the presence of chemical substance / level in the absence of chemical substance,yeast gene YML079W,1.7
same,The level of expressed mRNA in the presence of chemical substance/The level of expressed mRNA in the absence of chemical substance,yeast gene YML117W,2.2
same,The level of expressed mRNA in the presence of chemical substance/The level of expressed mRNA in the absence of chemical substance,yeast gene YMR009W,1.9
same,The level of expressed mRNA in the presence of chemical substance/The level of expressed mRNA in the absence of chemical substance,yeast gene YMR067C,0.9
same,level of expressed mRNA in the presence of chemical substance / level in the absence of chemical substance,yeast gene YMR068W,0.7
same,level of expressed mRNA in the presence of chemical substance / level in the absence of chemical substance,yeast gene YMR071C,2.0
same,The level of expressed mRNA in the presence of chemical substance/The level of expressed mRNA in the absence of chemical substance,yeast gene YMR090W,9.5
same,The level of expressed mRNA in the presence of chemical substance/The level of expressed mRNA in the absence of chemical substance,yeast gene YMR095C,2.0
same,The level of expressed mRNA in the presence of chemical substance/The level of expressed mRNA in the absence of chemical substance,yeast gene YMR097C,1.0
same,The level of expressed mRNA in the presence of chemical substance/The level of expressed mRNA in the absence of chemical substance,yeast gene YMR102C,2.9
same,The level of expressed mRNA in the presence of chemical substance/The level of expressed mRNA in the absence of chemical substance,yeast gene YMR107W,3.9
same,level of expressed mRNA in the presence of chemical substance / level in the absence of chemical substance,yeast gene YMR160W,1.3
same,The level of expressed mRNA in the presence of chemical substance/The level of expressed mRNA in the absence of chemical substance,yeast gene YMR180C,0.9
same,The level of expressed mRNA in the presence of chemical substance/The level of expressed mRNA in the absence of chemical substance,yeast gene YMR184W,5.4
same,The level of expressed mRNA in the presence of chemical substance/The level of expressed mRNA in the absence of chemical substance,yeast gene YMR191W,2.4
same,The level of expressed mRNA in the presence of chemical substance/The level of expressed mRNA in the absence of chemical substance,yeast gene YMR295C,1.0
same,The level of expressed mRNA in the presence of chemical substance/The level of expressed mRNA in the absence of chemical substance,yeast gene YMR316W,2.9
same,level of expressed mRNA in the presence of chemical substance / level in the absence of chemical substance,yeast gene YNL026W,1.0
same,The level of expressed mRNA in the presence of chemical substance/The level of expressed mRNA in the absence of chemical substance,yeast gene YNL044W,0.9
